Measured values reported in patent US10798941B2, “Microbiocidal oxadiazole derivatives” (SYNGENTA PARTICIPATIONS AG, priority 2016, dated 2020).

Assays:
[1] = test system: Phakopsora pachyrhizi; experiment: Phakopsora pachyrhizi / soybean / leaf disc preventative (Asian soybean rust); assay type: in vivo; settings: foliar, 288 h, 200 ppm in the applied formulation, soybean leaf disks, inoculated one day after application, assessed 12 to 14 days after application, vs untreated, read-out: disease control
Experimental: (§1) Leaf disks or leaf segments of various plant species are cut from plants grown in a greenhouse. The cut leaf disks or segments are placed in multiwell plates (24-well format) onto water agar. The leaf disks are sprayed with a test solution before (preventative) or after (curative) inoculation. Compounds to be tested are prepared as DMSO solutions (max. 10 mg/ml) which are diluted to the appropriate concentration with 0.025% Tween20 just before spraying. The inoculated leaf disks or segments are incubated under defined conditions (temperature, relative humidity, light, etc.) according to the respective test system. A single evaluation of disease level is carried out 3 to 14 days after inoculation, depending on the pathosystem. Percent disease control relative to the untreated check leaf disks or segments is then calculated.
Soybean leaf disks are placed on water agar in multiwell plates (24-well format) and sprayed with the formulated test compound diluted in water. One day after application leaf discs are inoculated by spraying a spore suspension on the lower leaf surface. After an incubation period in a climate cabinet of 24-36 hours in darkness at 20° C. and 75% rh leaf disc are kept at 20° C. with 12 h light/day and 75% rh. The activity of a compound is assessed as percent disease control compared to untreated when an appropriate level of disease damage appears in untreated check leaf disks (12 to 14 days after application).
(§2) The following compounds at 200 ppm in the applied formulation give at least 80% disease control in this test when compared to untreated control leaf disks under the same conditions, which show extensive disease development.

[2] = test system: Puccinia recondita f. Sp. Tritici; experiment: Puccinia recondita f. sp. tritici / wheat / leaf disc preventative (brown rust); assay type: in vivo; settings: foliar, 168 h, 200 ppm in the applied formulation, wheat leaf segments cv. Kanzler, preventative, inoculated 1 day after application, assessed 7 to 9 days after application, vs untreated, read-out: disease control
Outline: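 Preventative leaf-segment test: spray application of diluted formulated compound on wheat cv. Kanzler, spore inoculation after 1 day. Percent control relative to untreated segments rated 7 to 9 days post-application, with incubation at 19° C, 75% relative humidity, 12 h photoperiod.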

[3] = test system: Glomerella Lagenarium (Colletotrichum Lagenarium); experiment: Glomerella lagenarium (Colletotrichum lagenarium) liquid culture / cucumber / preventative (anthracnose); assay type: cell-based; settings: Colletotrichum orbiculare; 20 ppm in the applied formulation; liquid culture in PDB, 24° C., inhibition of growth measured photometrically 3 to 4 days after application, vs untreated; read-out: disease control
Outline: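 Conidia from cryogenic storage were mixed into potato dextrose broth. This was added to compound diluted from DMSO into 0.025% Tween20, tested at 20 ppm. Plates were incubated in the dark at 24 °C and 96% relative humidity, and growth was read photometrically after 2–7 days as % activity versus untreated check.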

[4] = test system: Puccinia recondita f. Sp. Tritici; experiment: Puccinia recondita f. sp. tritici / wheat / leaf disc curative (brown rust); assay type: in vivo; settings: foliar, 144 h, 200 ppm in the applied formulation, wheat leaf segments cv. Kanzler, applied 1 day after inoculation, assessed 6 to 8 days after application, vs untreated, read-out: disease control
Experimental: as §1
Wheat leaf segments cv. Kanzler are placed on agar in multiwell plates (24-well format). The leaf segments are then inoculated with a spore suspension of the fungus. Plates were stored in darkness at 19° C. and 75% relative humidity. The formulated test compound diluted in water was applied 1 day after inoculation. The leaf segments were incubated at 19° C. and 75% relative humidity under a light regime of 12 hours light/12 hours darkness in a climate cabinet and the activity of a compound was assessed as percent disease control compared to untreated when an appropriate level of disease damage appears in untreated check leaf segments (6 to 8 days after application).
as §2

SMILES	pest or weed control at 200 ppm [1]	pest or weed control at 200 ppm [2]	inhibition of growth at 20 ppm [3]	pest or weed control at 200 ppm [4]
FC(F)(F)c1ccn(Cc2ccc(-c3noc(C(F)(F)F)n3)cc2)n1 [Compound 1.21, 5-(trifluoromethyl)-3-[4-[[3-(trifluoromethyl)pyrazol-1-yl]methyl]phenyl]-1,2,4-oxadiazole]	≥ 80%	≥ 80%	≥ 80%	–
COC(=O)c1ncnn1Cc1ccc(-c2noc(C(F)(F)F)n2)cc1 [Compound 1.36, methyl 2-[[4-[5-(trifluoromethyl)-1,2,4-oxadiazol-3-yl]phenyl]methyl]-1,2,4-triazole-3-carboxylate]	≥ 80%	≥ 80%	≥ 80%	≥ 80%
N#Cc1ncn(Cc2ccc(-c3noc(C(F)(F)F)n3)cc2)n1 [Compound 1.40, 1-[[4-[5-(trifluoromethyl)-1,2,4-oxadiazol-3-yl]phenyl]methyl]-1,2,4-triazole-3-carbonitrile]	≥ 80%	≥ 80%	≥ 80%	≥ 80%
COc1ccc(C(C)c2ccc(-c3noc(C(F)(F)F)n3)cc2)cn1 (stereo not drawn) [Compound 1.42, 3-[4-[1-(6-methoxy-3-pyridyl)ethyl]phenyl]-5-(trifluoromethyl)-1,2,4-oxadiazole]	≥ 80%	≥ 80%	≥ 80%	≥ 80%
COC(=O)c1ncn(Cc2ccc(-c3noc(C(F)(F)F)n3)cc2)c1C(=O)OC [Compound 1.43, dimethyl 1-[[4-[5-(trifluoromethyl)-1,2,4-oxadiazol-3-yl]phenyl]methyl]imidazole-4,5-dicarboxylate]	≥ 80%	≥ 80%	≥ 80%	≥ 80%
CC(=O)NCCc1cn(Cc2ccc(-c3noc(C(F)(F)F)n3)cc2)cn1 [Compound 1.156, N-[2-[1-[[4-[5-(trifluoromethyl)-1,2,4-oxadiazol-3-yl]phenyl]methyl]imidazol-4-yl]ethyl]acetamide]	≥ 80%	≥ 80%	–	≥ 80%
N#Cc1cc2n(Cc3ccc(-c4noc(C(F)(F)F)n4)cc3)cccc-2n1 [Compound 1.157, 4-[[4-[5-(trifluoromethyl)-1,2,4-oxadiazol-3-yl]phenyl]methyl]pyrrolo[3,2-b]pyridine-2-carbonitrile]	≥ 80%	≥ 80%	≥ 80%	–
N#Cc1cc2ncccc2n1Cc1ccc(-c2noc(C(F)(F)F)n2)cc1 [Compound 1.158, 1-[[4-[5-(trifluoromethyl)-1,2,4-oxadiazol-3-yl]phenyl]methyl]pyrrolo[3,2-b]pyridine-2-carbonitrile]	≥ 80%	≥ 80%	≥ 80%	–
Cc1cc(O)nn1Cc1ccc(-c2noc(C(F)(F)F)n2)cc1 [Compound 1.171, 5-methyl-1-[[4-[5-(trifluoromethyl)-1,2,4-oxadiazol-3-yl]phenyl]methyl]pyrazol-3-ol]	≥ 80%	≥ 80%	≥ 80%	–
CCOC(=O)c1cc(C2CC2)n(Cc2ccc(-c3noc(C(F)(F)F)n3)cc2)n1 [Compound 1.186, ethyl 5-cyclopropyl-1-[[4-[5-(trifluoromethyl)-1,2,4-oxadiazol-3-yl]phenyl]methyl]pyrazole-3-carboxylate]	≥ 80%	≥ 80%	≥ 80%	–
Cc1nc2ccc(C(F)(F)F)cc2n1Cc1ccc(-c2noc(C(F)(F)F)n2)cc1 [Compound 1.190, 3-[4-[[2-methyl-6-(trifluoromethyl)benzimidazol-1-yl]methyl]phenyl]-5-(trifluoromethyl)-1,2,4-oxadiazole]	≥ 80%	–	≥ 80%	–
COC(=O)c1cccc2c1cnn2Cc1ccc(-c2noc(C(F)(F)F)n2)cc1 [Compound 1.193, methyl 1-[[4-[5-(trifluoromethyl)-1,2,4-oxadiazol-3-yl]phenyl]methyl]indazole-4-carboxylate]	≥ 80%	≥ 80%	≥ 80%	–
N#Cc1nn(Cc2ccc(-c3noc(C(F)(F)F)n3)cc2)c2cc(F)ccc12 [Compound 1.194, 6-fluoro-1-[[4-[5-(trifluoromethyl)-1,2,4-oxadiazol-3-yl]phenyl]methyl]indazole-3-carbonitrile]	≥ 80%	–	≥ 80%	–
Cc1ccc2c(nnn2Cc2ccc(-c3noc(C(F)(F)F)n3)cc2)c1C [Compound 1.198, 3-[4-[(4,5-dimethylbenzotriazol-1-yl)methyl]phenyl]-5-(trifluoromethyl)-1,2,4-oxadiazole]	≥ 80%	–	≥ 80%	–
CCOC(=O)c1cn(Cc2ccc(-c3noc(C(F)(F)F)n3)cc2)nc1C(F)F [Compound 1.204, ethyl 3-(difluoromethyl)-1-[[4-[5-(trifluoromethyl)-1,2,4-oxadiazol-3-yl]phenyl]methyl]pyrazole-4-carboxylate]	≥ 80%	≥ 80%	≥ 80%	–
CCOC(=O)c1cnn(Cc2ccc(-c3noc(C(F)(F)F)n3)cc2)c1C(F)F [Compound 1.205, ethyl 5-(difluoromethyl)-1-[[4-[5-(trifluoromethyl)-1,2,4-oxadiazol-3-yl]phenyl]methyl]pyrazole-4-carboxylate]	≥ 80%	–	≥ 80%	–
FC(F)(F)c1nc(-c2ccc(Cn3cnc(SCc4ccccc4)n3)cc2)no1 [Compound 1.212, 3-[4-[(3-benzylsulfanyl-1,2,4-triazol-1-yl)methyl]phenyl]-5-(trifluoromethyl)-1,2,4-oxadiazole]	≥ 80%	≥ 80%	≥ 80%	–
COc1ccc(-c2cc(C=O)n(Cc3ccc(-c4noc(C(F)(F)F)n4)cc3)n2)cc1 [Compound 1.223, 5-(4-methoxyphenyl)-2-[[4-[5-(trifluoromethyl)-1,2,4-oxadiazol-3-yl]phenyl]methyl]pyrazole-3-carbaldehyde]	≥ 80%	–	≥ 80%	–
CCCc1c(C(=O)OCC)ncn1Cc1ccc(-c2noc(C(F)(F)F)n2)cc1 [Compound 1.224, ethyl 5-propyl-1-[[4-[5-(trifluoromethyl)-1,2,4-oxadiazol-3-yl]phenyl]methyl]imidazole-4-carboxylate]	≥ 80%	≥ 80%	≥ 80%	–
O=Cc1ccc(-c2nnn(Cc3ccc(-c4noc(C(F)(F)F)n4)cc3)n2)cc1 [Compound 1.227, 4-[2-[[4-[5-(trifluoromethyl)-1,2,4-oxadiazol-3-yl]phenyl]methyl]tetrazol-5-yl]benzaldehyde]	≥ 80%	–	≥ 80%	–
N#Cc1nn(Cc2ccc(-c3noc(C(F)(F)F)n3)cc2)c2ccccc12 [Compound 1.228, 1-[[4-[5-(trifluoromethyl)-1,2,4-oxadiazol-3-yl]phenyl]methyl]indazole-3-carbonitrile]	≥ 80%	–	≥ 80%	–
N#Cc1nnn(Cc2ccc(-c3noc(C(F)(F)F)n3)cc2)c1-c1c(F)cccc1F [Compound 1.240, 5-(2,6-difluorophenyl)-1-[[4-[5-(trifluoromethyl)-1,2,4-oxadiazol-3-yl]phenyl]methyl]triazole-4-carbonitrile]	≥ 80%	≥ 80%	≥ 80%	–
